Where a name gives a salt, the structure may show the parent alone.
Assays:
Type in all cases: cell-based
Target C CJ mRNA = test: Gene panel canonical junction qPCR assay, Target C; conditions: Homo sapiens, larger gene panel, read-out: Target C IC50 (decrease in CJ mRNA levels)
Method in brief: (§1)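 A673 or K562 cells treated 24 h with 11-point 3-fold dilutions (top 10 µM, ≤0.25% DMSO) at 37 °C. Canonical exon-junction mRNA measured by probe-based RT-qPCR, normalized to GAPDH, GUSB or PPIA and DMSO (2^−ΔΔCt), converted to percent response over a fixed ΔCt window; IC50 from 4-parameter fit.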

HTT CJ mRNA = test: Gene panel canonical junction qPCR assay, HTT; conditions: Homo sapiens, larger gene panel, read-out: HTT IC50 (decrease in CJ mRNA levels)
Method in brief: as §1

HTT mRNA = test: Splicing RT-qPCR assay, HTT canonical (CJ) and alternative (AJ) junction mRNA; conditions: Homo sapiens, A673 or K562 cells, 24 hours treatment; for IC50: decrease in CJ mRNA; for AC50: increase in AJ mRNA
Method in brief: (§2)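 Compound-treated A673 or K562 cells (11-point 3-fold dilution, top dose 10 uM final, DMSO ≤0.25%) were incubated for 24 h at 37° C. Lysates underwent one-step RT-qPCR for canonical and alternative-exon junction isoforms. Normalization used PPIA for A673 and GAPDH or GUSB for K562.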

MYB mRNA = test: Splicing RT-qPCR assay, MYB canonical (CJ) and alternative (AJ) junction mRNA; conditions: Homo sapiens, A673 or K562 cells, 24 hours treatment; for IC50: decrease in CJ mRNA; for AC50: increase in AJ mRNA
Method in brief: as §2

SMN2 CJ mRNA = test: Gene panel canonical junction qPCR assay, SMN2; conditions: Homo sapiens, larger gene panel, read-out: SMN2 IC50 (decrease in CJ mRNA levels)
Method in brief: as §1

| SMILES | IC50 (Target C CJ mRNA) | IC50 (HTT CJ mRNA) | IC50 (HTT mRNA) | AC50 (HTT mRNA) | IC50 (MYB mRNA) | AC50 (MYB mRNA) | IC50 (SMN2 CJ mRNA) |
| --- | --- | --- | --- | --- | --- | --- | --- |
| Cc1nc(-c2nc3ncn(C4CCNCC4)c(=O)c3s2)cc2cn(C)nc12 [Compound 251, 2-(2,7-dimethyl-2H-pyrazolo[3,4-c]pyridin-5-yl)-6-(piperidin-4-yl)thiazolo[4,5-d]pyrimidin-7(6H)-one] | > 10 µM | 1 to 10 µM | 1 to 10 µM | 1 to 10 µM | 1 to 10 µM | > 10 µM | 0.1 to 1 µM |
| Cn1cc2cc(-c3nc4ncn(C5CCNCC5)c(=O)c4s3)c(O)cc2n1 [Compound 253, 2-(6-hydroxy-2-methyl-2H-indazol-5-yl)-6-(piperidin-4-yl)thiazolo[4,5-d]pyrimidin-7(6H)-one, hydrochloride] | 1 to 10 µM | 1 to 10 µM | 1 to 10 µM | 1 to 10 µM | 1 to 10 µM | 1 to 10 µM | 0.1 to 1 µM |
| Cc1cn2cc(-c3nc4sc(C5CCN(C)CC5)cc4c(=O)[nH]3)cc(F)c2n1 [Compound 256, 2-(8-fluoro-2-methylimidazo[1,2-a]pyridin-6-yl)-6-(1-methylpiperidin-4-yl)thieno[2,3-d]pyrimidin-4(3H)-one] | > 10 µM | > 10 µM | > 10 µM | > 10 µM | > 10 µM | > 10 µM | 1 to 10 µM |
| Cn1cc2cc(-c3cc4ncn(C5CCNCC5)c(=O)c4s3)cc(F)c2n1 [Compound 257] | 1 to 10 µM | 1 to 10 µM | 1 to 10 µM | 1 to 10 µM | 1 to 10 µM | 1 to 10 µM | 1 to 10 µM |
| Cn1cc2cc(-c3cc4ncn(C5CCNCC5)c(=O)c4s3)c(F)cc2n1 [Compound 258] | 1 to 10 µM | 0.1 to 1 µM | 0.1 to 1 µM | 0.1 to 1 µM | 0.1 to 1 µM | 0.1 to 1 µM | < 0.1 µM |
| Cn1cc2cc(-c3cc4ncn(C5CCNCC5)c(=O)c4s3)cc(C#N)c2n1 [Compound 259] | 1 to 10 µM | 1 to 10 µM | 1 to 10 µM | 1 to 10 µM | 0.1 to 1 µM | 0.1 to 1 µM | < 0.1 µM |
| COc1cc(-c2cc3ncn(C4CCNCC4)c(=O)c3s2)cnn1 [Compound 260] | 1 to 10 µM | 1 to 10 µM | 1 to 10 µM | 1 to 10 µM | 1 to 10 µM | 1 to 10 µM | 1 to 10 µM |
| Cc1cn2cc(-c3cc4ncn(C5CCNCC5)c(=O)c4s3)cc(C)c2n1 [Compound 261] | 1 to 10 µM | 0.1 to 1 µM | 0.1 to 1 µM | 1 to 10 µM | 0.1 to 1 µM | 0.1 to 1 µM | < 0.1 µM |
| Cc1cn2nc(-c3cc4ncn(C5CCNCC5)c(=O)c4s3)cc2c(C)n1 [Compound 262] | 0.1 to 1 µM | 0.1 to 1 µM | 0.1 to 1 µM | 0.1 to 1 µM | 0.1 to 1 µM | 0.1 to 1 µM | 0.1 to 1 µM |
| COc1cc(-c2cc3ncn(C4CCNCC4)c(=O)c3s2)ccn1 [Compound 263] | 1 to 10 µM | 1 to 10 µM | 1 to 10 µM | 1 to 10 µM | 1 to 10 µM | 1 to 10 µM | 1 to 10 µM |
| Cc1cn2cc(-c3cc4ncn(C5CCNCC5)c(=O)c4s3)ncc2n1 [Compound 264] | 1 to 10 µM | 1 to 10 µM | 1 to 10 µM | 1 to 10 µM | 1 to 10 µM | 1 to 10 µM | 0.1 to 1 µM |
| Cc1cn2cc(-c3cc4ncn(C5CCN(C)CC5)c(=O)c4s3)cc(F)c2n1 [Compound 265, 6-{8-fluoro-2-methylimidazo[1,2-a]pyridin-6-yl}-3-(1-methylpiperidin-4-yl)thieno[3,2-d]pyrimidin-4-one] | 0.1 to 1 µM | 0.1 to 1 µM | 0.1 to 1 µM | 0.1 to 1 µM | 0.1 to 1 µM | 0.1 to 1 µM | < 0.1 µM |
| Cc1cn2nc(-c3nc4sc(N5CCNCC5)nc4c(=O)[nH]3)cc2c(C)n1 [Compound 267] | 0.1 to 1 µM | 0.1 to 1 µM | 0.1 to 1 µM | 0.1 to 1 µM | 0.1 to 1 µM | 0.1 to 1 µM | 0.1 to 1 µM |
| Cc1cn2nc(-c3nc4sc(N5CCN(C)CC5)nc4c(=O)[nH]3)cc2c(C)n1 [Compound 268] | > 10 µM | > 10 µM | > 10 µM | > 10 µM | > 10 µM | 1 to 10 µM | 0.1 to 1 µM |
| Cc1cn2cc(-c3cc4ncn(N5CCNCC5)c(=O)c4s3)cc(F)c2n1 [Compound 269, 6-{8-fluoro-2-methylimidazo[1,2-a]pyridin-6-yl}-3-(piperazin-1-yl)thieno[3,2-d]pyrimidin-4-one] | 1 to 10 µM | 0.1 to 1 µM | 0.1 to 1 µM | 0.1 to 1 µM | 0.1 to 1 µM | 0.1 to 1 µM | < 0.1 µM |
| Cc1cn2cc(-c3cc4ncn(C5CCNC5)c(=O)c4s3)cc(F)c2n1 (stereo not drawn) [Compound 270, 6-{8-fluoro-2-methylimidazo[1,2-a]pyridin-6-yl}-3-(pyrrolidin-3-yl)thieno[3,2-d]pyrimidin-4-one] | 0.1 to 1 µM | 0.1 to 1 µM | 0.1 to 1 µM | 0.1 to 1 µM | 0.1 to 1 µM | 0.1 to 1 µM | 0.1 to 1 µM |
| Cc1nc(-c2cc3ncn(C4CCNCC4)c(=O)c3s2)cc2cn(C)nc12 [Compound 271] | 1 to 10 µM | 1 to 10 µM | 1 to 10 µM | 1 to 10 µM | 0.1 to 1 µM | 1 to 10 µM | < 0.1 µM |
| Cc1cn2cc(-c3cc4ncn(C5CCNCC5(F)F)c(=O)c4s3)cc(F)c2n1 (stereo not drawn) [Compound 274, 3-(3,3-difluoropiperidin-4-yl)-6-{8-fluoro-2-methylimidazo[1,2-a]pyridin-6-yl}thieno[3,2-d]pyrimidin-4-one] | > 10 µM | > 10 µM | > 10 µM | 1 to 10 µM | > 10 µM | > 10 µM | 1 to 10 µM |
| Cc1cn2cc(-c3cc4ncn(C5CCCNCC5)c(=O)c4s3)cc(F)c2n1 (stereo not drawn) [Compound 275, 3-(azepan-4-yl)-6-{8-fluoro-2-methylimidazo[1,2-a]pyridin-6-yl}thieno[3,2-d]pyrimidin-4-one] | 0.1 to 1 µM | 0.1 to 1 µM | 0.1 to 1 µM | 0.1 to 1 µM | 0.1 to 1 µM | 0.1 to 1 µM | < 0.1 µM |
| Cc1cn2cc(-c3cc4ncn(C5=CCNCC5)c(=O)c4s3)cc(F)c2n1 [Compound 276, 6-{8-fluoro-2-methylimidazo[1,2-a]pyridin-6-yl}-3-(1,2,3,6-tetrahydropyridin-4-yl)thieno[3,2-d]pyrimidin-4-one] | 0.1 to 1 µM | 0.1 to 1 µM | 0.1 to 1 µM | 0.1 to 1 µM | 0.1 to 1 µM | 0.1 to 1 µM | < 0.1 µM |
| Cc1cn2cc(-c3cc4ncn(C5CNCCC5=O)c(=O)c4s3)cc(F)c2n1 (stereo not drawn) [Compound 279, 3-(6-{8-fluoro-2-methylimidazo[1,2-a]pyridin-6-yl}-4-oxothieno [3,2-d]pyrimidin-3-yl)piperidin-4-one] | > 10 µM | > 10 µM | > 10 µM | > 10 µM | > 10 µM | > 10 µM | > 10 µM |
